target: T1, human LMPTP-A (Homo sapiens, UniProt P24666); test: Enzyme Assay of Inhibition of LMPTP-A; type: biochemical; conditions: phosphatase assay, OMFP or pNPP substrate, 50 mM Bis-Tris pH 6.0, 37° C.
T1 sequence (P24666 1-158): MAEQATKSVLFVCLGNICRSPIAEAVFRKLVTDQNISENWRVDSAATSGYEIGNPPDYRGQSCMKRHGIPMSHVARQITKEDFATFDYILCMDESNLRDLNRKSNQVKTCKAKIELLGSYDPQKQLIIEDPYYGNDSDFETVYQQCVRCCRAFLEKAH
Experimental: Example B-1: Enzyme Assay of Inhibition of LMPTP-A
Phosphatase assays were performed in buffer containing 50 mM Bis-Tris, pH 6.0, 1 mM DTT and 0.01% Triton X-100 at 37° C. For assays conducted with 3-O-methylfluorescein phosphate (OMFP) as substrate, fluorescence was monitored continuously at λex=485 and λem=525 nm. For assays conducted with para-nitrophenylphosphate (pNPP) as substrate, the reaction was stopped by addition of 2× reaction volume of 1 M NaOH, and absorbance was measured at 405 nm. IC50 values of compounds disclosed herein were determined from plots of inhibitor concentration versus percentage of enzyme activity. For inhibitor selectivity assays, each PTP was incubated with either 0.4 mM OMFP or 5 mM pNPP in the presence of 40 μM compound or DMSO. […] For the inhibitor reversibility assay, 50 nM human LMPTP-A was pre-incubated with 10 μM of compound disclosed herein or DMSO for 5 min. The enzyme was diluted 100× in phosphatase assay buffer containing 0.4 mM OMFP and fluorescence was measured at the indicated time points.

Which IC50 does the source give for `Cc1cc(-c2nc3c(N)ncn(Cc4c(Cl)cncc4Cl)c-3n2)n(C)n1` [3-[(3,5-dichloro(4-pyridyl))methyl]-8-(1,3-dimethylpyrazol-5-yl)-3-hydropurine-6-ylamine] here?
The IC50 was under 1000 nM.

With `Cc1ccccc1-c1nc2c(N)ncn(Cc3c(Br)ccnc3Cl)c-2n1` [3-[(4-bromo-2-chloro(3-pyridyl))methyl]-8-(2-methylphenyl)-3-hydropurine-6-ylamine] as the molecule, how does the IC50 read?
Its IC50 is under 1000 nM.

For `Nc1ncn(Cc2c(Cl)cncc2Cl)c2nc(-c3ccc4sccc4c3)nc1-2` [8-benzo[b]thiophen-5-yl-3-[(3,5-dichloro(4-pyridyl))methyl]-3-hydropurine-6-ylamine], which IC50 is on record?
Its IC50 is under 1000 nM.

`Cc1ccccc1-c1nc2c(N)ncn(Cc3cncc(Cl)c3)c-2n1` [3-[(5-chloro(3-pyridyl))methyl]-8-(2-methylphenyl)-3-hydropurine-6-ylamine] was tested. Which IC50 did it give?
Its IC50 is under 1000 nM.

Which IC50 does the source give for `Cc1ccccc1-c1nc2c(N)ncn(Cc3cccnc3C)c-2n1` [3-[(2-methyl(3-pyridyl))methyl]-8-(2-methylphenyl)-3-hydropurine-6-ylamine] here?
The IC50 was under 1000 nM.

How did the IC50 turn out when `Cc1ccccc1-c1nc2c(N)ncn(Cc3ccncc3F)c-2n1` [3-[(3-fluoro(4-pyridyl))methyl]-8-(2-methylphenyl)-3-hydropurine-6-ylamine] was run?
Its IC50 is under 1000 nM.

For `Cc1ncsc1Cn1cnc(N)c2nc(-c3ccccc3)nc1-2` [3-[(4-methyl(1,3-thiazol-5-yl))methyl]-8-phenyl-3-hydropurine-6-ylamine], which IC50 is on record?
Its IC50 is 1000 to 20000 nM.

`Nc1ncn(Cc2c(Cl)ccnc2Cl)c2nc(-c3ccccc3)nc1-2` [3-[(2,4-dichloro(3-pyridyl))methyl]-8-phenyl-3-hydropurine-6-ylamine] was tested. Which IC50 did it give?
The IC50 was under 1000 nM.

For `Nc1ccncc1-c1nc2c(N)ncn(Cc3c(Cl)cncc3Cl)c-2n1` [8-(4-amino(3-pyridyl))-3-[(3,5-dichloro(4-pyridyl))methyl]-3-hydropurine-6-ylamine], which IC50 is on record?
Its IC50 is 1000 to 20000 nM.

Which IC50 does the source give for “3-[(3,5-dichloro(4-pyridyl))methyl]-8-(2-5,6,7,8-tetrahydronaphthyl)-3-hydropurine-6-ylamine” here?
The IC50 was under 1000 nM.

How did the IC50 turn out when `Nc1ncn(Cc2c(Cl)cncc2Cl)c2nc(-c3cnn4ccccc34)nc1-2` [3-[(3,5-dichloro(4-pyridyl))methyl]-8-(8-hydropyrazolo[1,5-a]pyridin-3-yl)-3-hydropurine-6-ylamine] was run?
The IC50 was under 1000 nM.

`Nc1ncn(Cc2sccc2Cl)c2nc(-c3ccccc3)nc1-2` [3-[(3-chloro(2-thienyl))methyl]-8-phenyl-3-hydropurine-6-ylamine] was tested. Which IC50 did it give?
Its IC50 is under 1000 nM.

With `Nc1ncn(Cc2c(Cl)ccnc2Cl)c2nc(C3C4CC5CC(C4)CC3C5)nc1-2` (stereo not drawn) [8-adamantan-2-yl-3-[(2,4-dichloro(3-pyridyl))methyl]-3-hydropurine-6-ylamine] as the molecule, how does the IC50 read?
Its IC50 is under 1000 nM.

`Nc1ncn(Cc2c(Cl)cncc2Cl)c2nc(-c3cccc4c3CCCC4)nc1-2` [3-[(3,5-dichloro(4-pyridyl))methyl]-8-(5,6,7,8-tetrahydronaphthyl)-3-hydropurine-6-ylamine] was tested. Which IC50 did it give?
Its IC50 is over 20000 nM.

Which IC50 does the source give for `Cc1ccccc1-c1nc2c(N)nc(C)n(Cc3c(Br)cnn3C)c-2n1` [3-[(4-bromo-1-methylpyrazol-5-yl)methyl]-2-methyl-8-(2-methylphenyl)-3-hydropurine-6-ylamine] here?
Its IC50 is 1000 to 20000 nM.

How did the IC50 turn out when `Nc1ncn(Cc2c(Cl)cncc2Cl)c2nc(-c3ccc4c(c3)OCO4)nc1-2` [8-(2H-benzo[d]1,3-dioxolen-5-yl)-3-[(3,5-dichloro(4-pyridyl))methyl]-3-hydropurine-6-ylamine] was run?
The IC50 was under 1000 nM.

Which IC50 does the source give for `Cc1cc(-c2nc3c(N)ncn(Cc4c(Cl)ccnc4Cl)c-3n2)n(C)n1` [3-[(2,4-dichloro(3-pyridyl))methyl]-8-(1,3-dimethylpyrazol-5-yl)-3-hydropurine-6-ylamine] here?
The IC50 was under 1000 nM.

With `Nc1ncn(Cc2c(Cl)ccnc2Cl)c2nc(-c3ccc4ncsc4c3)nc1-2` [8-benzothiazol-6-yl-3-[(2,4-dichloro(3-pyridyl))methyl]-3-hydropurine-6-ylamine] as the molecule, how does the IC50 read?
The IC50 was under 1000 nM.

`Nc1ncn(Cc2c(Cl)cncc2Cl)c2nc(-c3ccn4nccc4c3)nc1-2` [3-[(3,5-dichloro(4-pyridyl))methyl]-8-(8-hydropyrazolo[1,5-a]pyridin-5-yl)-3-hydropurine-6-ylamine] was tested. Which IC50 did it give?
The IC50 was under 1000 nM.

`Nc1ncn(Cc2c(Cl)cncc2Cl)c2nc(C3C4CC5CC(C4)CC3C5)nc1-2` (stereo not drawn) [8-adamantan-2-yl-3-[(3,5-dichloro(4-pyridyl))methyl]-3-hydropurine-6-ylamine] was tested. Which IC50 did it give?
Its IC50 is under 1000 nM.

For `COc1nccc(I)c1Cn1cnc(N)c2nc(-c3ccccc3)nc1-2` [3-[(4-iodo-2-methoxy(3-pyridyl))methyl]-8-phenyl-3-hydropurine-6-ylamine], which IC50 is on record?
The IC50 was under 1000 nM.

For `Cn1cnc2cc(-c3nc4c(N)ncn(Cc5c(Cl)cncc5Cl)c-4n3)ccc21` [3-[(3,5-dichloro(4-pyridyl))methyl]-8-(1-methylbenzimidazol-5-yl)-3-hydropurine-6-ylamine], which IC50 is on record?
Its IC50 is under 1000 nM.

How did the IC50 turn out when `Nc1ncn(Cc2c(Cl)cncc2Cl)c2nc(-c3ccc4occc4c3)nc1-2` [8-benzo[b]furan-5-yl-3-[(3,5-dichloro(4-pyridyl))methyl]-3-hydropurine-6-ylamine] was run?
The IC50 was under 1000 nM.

Which IC50 does the source give for `Nc1ncn(Cc2c(Cl)ccnc2Cl)c2nc(-c3cc(F)ccc3F)nc1-2` [3-[(2,4-dichloro(3-pyridyl))methyl]-8-(2,5-difluorophenyl)-3-hydropurine-6-ylamine] here?
Its IC50 is under 1000 nM.

How did the IC50 turn out when `Cc1ccccc1-c1nc2c(N)ncn(Cc3c(Cl)ccnc3Cl)c-2n1` [3-[(2,4-dichloro(3-pyridyl))methyl]-8-(2-methylphenyl)-3-hydropurine-6-ylamine] was run?
Its IC50 is under 1000 nM.

How did the IC50 turn out when `COc1ccnc(OC)c1Cn1cnc(N)c2nc(-c3ccccc3C)nc1-2` [3-[(2,4-dimethoxy(3-pyridyl))methyl]-8-(2-methylphenyl)-3-hydropurine-6-ylamine] was run?
The IC50 was under 1000 nM.

For “3-[(3,5-diiodo(4-pyridyl))methyl]-8-(2-methylphenyl)-3-hydropurine-6-ylamine”, which IC50 is on record?
The IC50 was under 1000 nM.

How did the IC50 turn out when `Cc1nc(C)c(Cn2cnc(N)c3nc(-c4ccccc4C)nc2-3)s1` [3-[(2,4-dimethyl(1,3-thiazol-5-yl))methyl]-8-(2-methylphenyl)-3-hydropurine-6-ylamine] was run?
Its IC50 is under 1000 nM.

For `COc1cccc(OC)c1-c1nc2c(N)ncn(Cc3c(Cl)ncc(Cl)c3Cl)c-2n1` [8-(2,6-dimethoxyphenyl)-3-[(2,4,5-trichloro(3-pyridyl))methyl]-3-hydropurine-6-ylamine], which IC50 is on record?
The IC50 was under 1000 nM.

For `Cc1ccccc1-c1nc2c(N)ncn(Cc3c(Br)cncc3Br)c-2n1` [3-[(3,5-dibromo(4-pyridyl))methyl]-8-(2-methylphenyl)-3-hydropurine-6-ylamine], which IC50 is on record?
Its IC50 is under 1000 nM.

Which IC50 does the source give for `COc1cncc(OC)c1Cn1cnc(N)c2nc(-c3ccccc3C)nc1-2` [3-[(3,5-dimethoxy(4-pyridyl))methyl]-8-(2-methylphenyl)-3-hydropurine-6-ylamine] here?
Its IC50 is under 1000 nM.

How did the IC50 turn out when `Cc1ccccc1-c1nc2c(N)nc(C)n(Cc3c(Cl)ccnc3Cl)c-2n1` [3-[(2,4-dichloro(3-pyridyl))methyl]-2-methyl-8-(2-methylphenyl)-3-hydropurine-6-ylamine] was run?
Its IC50 is 1000 to 20000 nM.

How did the IC50 turn out when `Nc1ncn(Cc2c(Cl)cncc2Cl)c2nc(-c3cnccc3C(F)(F)F)nc1-2` [3-[(3,5-dichloro(4-pyridyl))methyl]-8-[4-(trifluoromethyl)(3-pyridyl)]-3-hydropurine-6-ylamine] was run?
Its IC50 is under 1000 nM.

Which IC50 does the source give for `COc1cccc(OC)c1-c1nc2c(N)ncn(Cc3c(Cl)cnc(Cl)c3Cl)c-2n1` [8-(2,6-dimethoxyphenyl)-3-[(2,3,5-trichloro(4-pyridyl))methyl]-3-hydropurine-6-ylamine] here?
Its IC50 is under 1000 nM.

For `Cc1ccccc1-c1nc2c(N)ncn(Cc3c(Cl)cnc(Cl)c3Cl)c-2n1` [8-(2-methylphenyl)-3-[(2,3,5-trichloro(4-pyridyl))methyl]-3-hydropurine-6-ylamine], which IC50 is on record?
Its IC50 is under 1000 nM.

`Nc1ncn(Cc2c(Br)ccnc2Cl)c2nc(-c3ccccc3)nc1-2` [3-[(4-bromo-2-chloro(3-pyridyl))methyl]-8-phenyl-3-hydropurine-6-ylamine] was tested. Which IC50 did it give?
The IC50 was under 1000 nM.

With `Cn1cnc2ccc(-c3nc4c(N)ncn(Cc5c(Cl)cncc5Cl)c-4n3)cc21` [3-[(3,5-dichloro(4-pyridyl))methyl]-8-(1-methylbenzimidazol-6-yl)-3-hydropurine-6-ylamine] as the molecule, how does the IC50 read?
Its IC50 is under 1000 nM.

How did the IC50 turn out when “3-[(4-iodo-2-methoxy(3-pyridyl))methyl]-8-(2-methylphenyl)-3-hydropurine-6-ylamine” was run?
The IC50 was under 1000 nM.

For `Cc1ccccc1-c1nc2c(N)ncn(Cc3c(Cl)nc(N)nc3Cl)c-2n1` [3-[(2-amino-4,6-dichloropyrimidin-5-yl)methyl]-8-(2-methylphenyl)-3-hydropurine-6-ylamine], which IC50 is on record?
Its IC50 is under 1000 nM.

`Cc1ccccc1-c1nc2c(N)ncn(Cc3ccncc3Cl)c-2n1` [3-[(3-chloro(4-pyridyl))methyl]-8-(2-methylphenyl)-3-hydropurine-6-ylamine] was tested. Which IC50 did it give?
Its IC50 is under 1000 nM.

With `Nc1ncn(Cc2c(Cl)cncc2Cl)c2nc(-c3nc4ccccc4[nH]3)nc1-2` [8-benzimidazol-2-yl-3-[(3,5-dichloro(4-pyridyl))methyl]-3-hydropurine-6-ylamine] as the molecule, how does the IC50 read?
The IC50 was under 1000 nM.

With `Cc1ccccc1-c1nc2c(N)ncn(Cc3c(Cl)ncnc3Cl)c-2n1` [3-[(4,6-dichloropyrimidin-5-yl)methyl]-8-(2-methylphenyl)-3-hydropurine-6-ylamine] as the molecule, how does the IC50 read?
Its IC50 is under 1000 nM.
